Earlier results in patent publication US20220000833A1, “COMPOSITIONS AND METHODS FOR TREATING O[…] APNEA” (THERAPIX BIOSCIENCES LTD., priority 2018, published 2022).

Legend:
patients = settings: more than 40 years of clinical research, around 6000 patients, 300-1200 mg a day up to two months

Structure (SMILES)	hypothesized lethal dose in humans (humans; based on rat studies)	dose at which serious Dronabinol-associated adverse events in humans have been reported (humans; humans)	estimated lethal dose in humans (humans; intravenous)	safety / side effects in clinical research (patients)
CCCCCc1cc(O)c2c(c1)OC(C)(C)[C@@H]1CCC(C)=C[C@@H]21 [Dronabinol, (−)-Trans-Δ9-tetrahydrocannabinol]	30 mg/kg	0.4 mg/kg	30 mg/kg	–
CCCCCCCCCCCCCCCC(=O)NCCO [PEA, N-(2-hydroxyethyl)hexadecanamide]	–	–	–	no side effects has ever been reported
